Measured values reported in patent US11584707B2, “Non-coordinating anion type activators containing cation having aryldiamine groups and uses thereof” (ExxonMobil Chemical Patents Inc., priority 2019, dated 2023).
Several values for one entry are separate records, joined by “and”; a condition that tells them apart may be missing. Equal entries are not always repeated.

Legend:
[1] = Ethylene-octene copolymerization (RUN A) in parallel pressure reactor; details: catalyst = 20 nmol, activator = 22 nmol, 1-octene = 100 μL, isohexane 5 mL, tri(n-octyl)aluminum = 500 nmol, T = 100° C., P = 100 PSI
Description: (§1) Unless stated otherwise, solutions of the metal complexes and activators were prepared in a drybox using toluene or methylcyclohexane. Concentrations were typically 0.2 mmol/L. Tri-n-octylaluminum (TNOAL, neat, AkzoNobel) was typically used as a scavenger. Concentration of the TNOAL solution in toluene was from 0.5 to 2 mmol/L.
(§2) Polymerizations were carried out in a parallel pressure reactor, as generally described in U.S. Pat. Nos. 6,306,658; 6,455,316; 6,489,168; WO 2000/009255; and Murphy, V. et al. (2003) “A Fully Integrated High-Throughput Screening Methodology for the Discovery of New Polyolefin Catalysts: Discovery of a New Class of High Temperature Single-Site Group (IV) Copolymerization Catalysts,” J. Am. Chem. Soc., v.125, pp. 4306-4317, each of which is incorporated by reference. The experiments were conducted in an inert atmosphere (N2) drybox using autoclaves equipped with an external heater for temperature control, glass inserts (internal volume of reactor=23.5 mL for C2 and C2/C8; 22.5 mL for C3 runs), septum inlets, regulated supply of nitrogen, ethylene and propylene, and equipped with disposable PEEK mechanical stirrers (800 RPM). The autoclaves were prepared by purging with dry nitrogen at 110° C. or 115° C. for 5 hours and then at 25° C. for 5 hours. Although the specific quantities, temperatures, solvents, reactants, reactant ratios, pressures, and other variables are frequently changed from one polymerization run to the next, the following describes a typical polymerization performed in a parallel pressure reactor.
(§3) RUN A: Ethylene-octene copolymerization (EO). A series of ethylene-octene polymerizations were performed in the parallel pressure reactor according to the procedure described above. In these studies rac-dimethylsilyl-bis(indenyl)hafnium dimethyl (MCN-1) was used along with ammonium borate activators. […] When sufficient polymer yield was attained (e.g., at least ˜10 mg), the polyethylene product was analyzed by Rapid GPC, described below.

[2] = Ethylene homopolymerization (RUN B) in parallel pressure reactor; details: catalyst = 20 nmol, activator = 22 nmol, isohexane 5 mL, tri(n-octyl)aluminum = 500 nmol, T = 100° C., P = 100 PSI
Description: as §1, §2
as §3, with “B: Ethylene homopolymerization (PE).” for “A: Ethylene-octene copolymerization (EO).”, “ethylene” for “ethylene-octene”

Compound: CCCCCCCCCCCCCCCCCCN(C)c1cccc2c([NH+](C)CCCCCCCCCCCCCCCCCC)cccc12.Fc1c(F)c(F)c([B-](c2c(F)c(F)c(F)c(F)c2F)(c2c(F)c(F)c(F)c(F)c2F)c2c(F)c(F)c(F)c(F)c2F)c(F)c1F [DANH-BF20]
- activity [1]: 545 kg/mmol/h and 661 kg/mmol/h and 448 kg/mmol/h and 492 kg/mmol/h
- activity [2]: 406 kg/mmol/h and 410 kg/mmol/h and 442 kg/mmol/h and 454 kg/mmol/h

Compound: CCCCCCCCCCCCCCCCCCN(C)c1cccc2c([NH+](C)CCCCCCCCCCCCCCCCCC)cccc12.Fc1c(F)c(F)c2c(F)c([B-](c3c(F)c(F)c4c(F)c(F)c(F)c(F)c4c3F)(c3c(F)c(F)c4c(F)c(F)c(F)c(F)c4c3F)c3c(F)c(F)c4c(F)c(F)c(F)c(F)c4c3F)c(F)c(F)c2c1F [DANH-BF28]
- activity [1]: 466 kg/mmol/h and 445 kg/mmol/h and 421 kg/mmol/h and 397 kg/mmol/h
- activity [2]: 388 kg/mmol/h and 364 kg/mmol/h and 478 kg/mmol/h and 416 kg/mmol/h

Compound: N,N-Dimethylanilinium tetrakis(pentafluorophenyl)borate [DMAH-BF20, reference compound]
- activity [1]: 526 kg/mmol/h and 359 kg/mmol/h and 668 kg/mmol/h and 689 kg/mmol/h
- activity [2]: 366 kg/mmol/h and 380 kg/mmol/h and 516 kg/mmol/h and 454 kg/mmol/h
